PMC6423499, “SPR-Measured Dissociation Kinetics of PROTAC Ternary Complexes Influence Target Degradation Rate” (ACS Chemical Biology, 2019)
Read-outs that look alike come from different tables or passages of the source. Marks after values point to notes of the source that are not given here.

Legend:
VHL + Brd4BD2G386E = target: T1, VHL + Brd4BD2G386E (Homo sapiens, UniProt O60885+P40337, G386E); test: SPR ternary binding of PROTAC:Brd4^BD2 G386E point mutant complex to immobilized VHL
T1 construct: VHL (54-213); Brd4BD2 (333-460); His6 with TEV cleavage site (N, cleaved yes); made in house; host or cells: E. coli BL21(DE3) (VCB)

VHL + Brd2BD2G382E = target: T2, VHL + Brd2BD2G382E (Homo sapiens, UniProt P25440+P40337, G382E); test: SPR ternary binding of PROTAC:Brd2^BD2 G382E point mutant complex to immobilized VHL
T2 construct: VHL (54-213); Brd2BD2 (344-455); His6 with TEV cleavage site (N, cleaved yes); made in house; host or cells: E. coli BL21(DE3) (VCB)

VHL + Brd4^BD2 [1] = target: T3, VHL + Brd4^BD2 (Homo sapiens, UniProt O60885+P40337); test: SPR ternary binding of PROTAC:Brd4^BD2 complex to immobilized VHL; conditions: for α (cooperativity, KD^binary/KD^ternary) / ΔΔG (ΔG^ternary – ΔG^binary): SPR; for Kd / koff / kon / t1/2 (dissociative half-life, ln2/koff): ternary (+ Brd4^BD2), 298.15 K; for dissociation kinetics faster than the VHL/MZ1/Brd4^BD2 complex: ternary complex with Brd4^BD2
T3 construct: VHL (54-213); Brd4BD2 (333-460); His6 with TEV cleavage site (N, cleaved yes); made in house; host or cells: E. coli BL21(DE3) (VCB)

VHL + Brd4^BD1 [2] = target: T4, VHL + Brd4^BD1 (Homo sapiens, UniProt O60885+P40337); test: SPR ternary binding of PROTAC:Brd4^BD1 complex to immobilized VHL
T4 construct: VHL (54-213); Brd4BD1 (44-168); His6 with TEV cleavage site (N, cleaved yes); made in house; host or cells: E. coli BL21(DE3) (VCB)

VHL + Brd3^BD2 [3] = target: T5, VHL + Brd3^BD2 (Homo sapiens, UniProt P40337+Q15059); test: SPR ternary binding of PROTAC:Brd3^BD2 complex to immobilized VHL
T5 construct: VHL (54-213); Brd3BD2 (306-416); His6 with TEV cleavage site (N, cleaved yes); made in house; host or cells: E. coli BL21(DE3) (VCB)

VHL + Brd3^BD1 [4] = target: T6, VHL + Brd3^BD1 (Homo sapiens, UniProt P40337+Q15059); test: SPR ternary binding of PROTAC:Brd3^BD1 complex to immobilized VHL
T6 construct: VHL (54-213); Brd3BD1 (24-144); His6 with TEV cleavage site (N, cleaved yes); made in house; host or cells: E. coli BL21(DE3) (VCB)

VHL + Brd4^BD2 [5] = conditions: cited from earlier work; for Kd: ternary + Brd4^BD2, ITC at 298.15 K; for ΔΔG (ITC) / α (ITC): ternary + Brd4^BD2, ITC
VHL + Brd2^BD2 [6] = target: T7, VHL + Brd2^BD2 (Homo sapiens, UniProt P25440+P40337); test: SPR ternary binding of PROTAC:Brd2^BD2 complex to immobilized VHL
T7 construct: VHL (54-213); Brd2BD2 (344-455); His6 with TEV cleavage site (N, cleaved yes); made in house; host or cells: E. coli BL21(DE3) (VCB)

VHL [7] = conditions: binary, ITC at 298.15 K, cited from earlier work
Brd4^BD2 = Brd4^BD2 (Homo sapiens, UniProt O60885); test: Reversed-format SPR, PROTAC binary binding to immobilized Brd4^BD2; conditions: qualitative, Figures S4 and S6
VHL + Brd2^BD1 [8] = target: T8, VHL + Brd2^BD1 (Homo sapiens, UniProt P25440+P40337); test: SPR ternary binding of PROTAC:Brd2^BD1 complex to immobilized VHL
T8 construct: VHL (54-213); Brd2BD1 (71-194); His6 with TEV cleavage site (N, cleaved yes); made in house; host or cells: E. coli BL21(DE3) (VCB)

VHL [9] = target: T9, VHL (Homo sapiens, UniProt P40337); test: SPR binary binding of PROTAC to immobilized VHL; conditions: binary (PROTAC alone), 285.15 K
T9 construct: VHL (54-213); His6 with TEV cleavage site (N, cleaved yes); made in house; host or cells: E. coli BL21(DE3)

VHL + Brd3BD2E344G = target: T10, VHL + Brd3BD2E344G (Homo sapiens, UniProt P40337+Q15059, E344G); test: SPR ternary binding of PROTAC:Brd3^BD2 E344G point mutant complex to immobilized VHL
T10 construct: VHL (54-213); Brd3BD2 (306-416); His6 with TEV cleavage site (N, cleaved yes); made in house; host or cells: E. coli BL21(DE3) (VCB)

VHL + Brd3^BD2 [10] = tested on: VHL + Brd3^BD2; parameters: method as in PMID 28288108; conditions: ternary + Brd3^BD2, ITC, ref [2]; cited from earlier work
VHL + Brd4^BD1 [11] = tested on: VHL + Brd4^BD1; parameters: method as in PMID 28288108; conditions: ternary + Brd4^BD1, ITC, ref [2]; cited from earlier work
VHL + Brd2^BD1 [12] = tested on: VHL + Brd2^BD1; parameters: method as in PMID 28288108; conditions: ternary + Brd2^BD1, ITC, ref [2]; cited from earlier work
VHL + Brd3^BD1 [13] = tested on: VHL + Brd3^BD1; parameters: method as in PMID 28288108; conditions: ternary + Brd3^BD1, ITC, ref [2]; cited from earlier work
VHL + Brd2^BD2 [14] = tested on: VHL + Brd2^BD2; parameters: method as in PMID 28288108; conditions: ternary + Brd2^BD2, ITC, ref [2]; cited from earlier work
[15] = ternary + Brd4^BD2, kinetic fit
[16] = ternary + Brd4^BD2, steady-state affinity fit (SSA)
[17] = steady-state affinity fit (SSA)

| Compound | α (cooperativity, KD^binary/KD^ternary) (VHL + Brd4^BD2 [1]; [15]) | Kd (VHL + Brd4^BD2 [1]; single-cycle, kinetic fit) [nM] | binary target affinity (for Brd4) (Brd4^BD2) | Kd (VHL [9]; multicycle, kinetic fit) [nM] | ΔΔG (ΔG^ternary – ΔG^binary) (VHL + Brd4^BD2 [1]; [15]) | ΔΔG (ΔG^ternary – ΔG^binary) (VHL + Brd4^BD2 [1]; [16]) | α (cooperativity, KD^binary/KD^ternary) (VHL + Brd4^BD2 [1]; [16]) | koff (VHL + Brd4^BD2 [1]; single-cycle, kinetic fit) [s⁻¹] | kon (VHL + Brd4^BD2 [1]; single-cycle, kinetic fit) [M^–1 s^–1 × 10^5] | t1/2 (dissociative half-life, ln2/koff) (VHL + Brd4^BD2 [1]; single-cycle, kinetic fit) [s] | Kd (VHL + Brd4^BD2 [1]; [17]) [nM] | dissociation kinetics faster than the VHL/MZ1/Brd4^BD2 complex (VHL + Brd4^BD2 [1]) [fold] | Kd (VHL + Brd4^BD2 [5]; ref [10]) [nM] | ΔΔG (ITC) (VHL + Brd4^BD2 [5]; ref [10]) | α (ITC) (VHL + Brd4^BD2 [5]; ref [10]) | Kd (VHL [7]; ref [10]) [nM] | Kd (VHL [9]; [17]) [nM] | further results |
| --- | --- | --- | --- | --- | --- | --- | --- | --- | --- | --- | --- | --- | --- | --- | --- | --- | --- | --- |
| CC(=O)N[C@H](C(=O)N1C[C@H](O)C[C@H]1C(=O)NCc1ccc(-c2scnc2C)cc1)C(C)(C)SCCCCCCNC(=O)C[C@@H]1N=C(c2ccc(Cl)cc2)c2c(sc(C)c2C)-n2c(C)nnc21 [AT1] | 4.7 | 24 | weaker | 110 | – | – | – | – | – | – | – | – | – | – | – | – | – | ΔΔG (ΔG^ternary – ΔG^binary) (VHL + Brd4BD2G386E): +0.2 kcal/mol; α (cooperativity, KD^binary/KD^ternary) (VHL + Brd4BD2G386E): 0.8; ΔΔG (ΔG^ternary – ΔG^binary) (VHL + Brd2BD2G382E): +0.3 kcal/mol; α (cooperativity, KD^binary/KD^ternary) (VHL + Brd2BD2G382E): 0.7; ΔΔG (ΔG^ternary – ΔG^binary) (VHL + Brd4^BD1 [2]): +1.1 kcal/mol; α (cooperativity, KD^binary/KD^ternary) (VHL + Brd4^BD1 [2]): 0.2; ΔΔG (ΔG^ternary – ΔG^binary) (VHL + Brd3^BD2 [3]): +0.4 kcal/mol; α (cooperativity, KD^binary/KD^ternary) (VHL + Brd3^BD2 [3]): 0.7; ΔΔG (ΔG^ternary – ΔG^binary) (VHL + Brd3^BD1 [4]): +0.2 kcal/mol; α (cooperativity, KD^binary/KD^ternary) (VHL + Brd3^BD1 [4]): 0.8; Kd (VHL + Brd4^BD2 [5]; ref [2]): 46 nM; α (cooperativity, KD^binary/KD^ternary) (VHL + Brd2^BD2 [6]; SPR, ternary + Brd2^BD2): 4.1; Kd (VHL + Brd2^BD2 [6]; ternary (+ Brd2^BD2), 298.15 K, single-cycle, kinetic fit): 27 nM; Kd (VHL [7]; ref [2]): 335 nM; ΔΔG (ΔG^ternary – ΔG^binary) (VHL + Brd2^BD1 [8]): +0.9 kcal/mol; α (cooperativity, KD^binary/KD^ternary) (VHL + Brd2^BD1 [8]): 0.3; α (cooperativity, KD^binary/KD^ternary) (VHL + Brd3BD2E344G): 3.4 |
| Cc1ncsc1-c1ccc(CNC(=O)[C@@H]2C[C@@H](O)CN2C(=O)[C@@H](NC(=O)COCCOCCOCCNC(=O)C[C@@H]2N=C(c3ccc(Cl)cc3)c3c(sc(C)c3C)-n3c(C)nnc32)C(C)(C)C)cc1 [MZ1] | – | – | – | – | – | – | – | – | – | – | – | – | – | – | – | – | – | ΔΔG (ITC) (VHL + Brd3^BD2 [10]): –1.5 ^d kcal/mol; α (ITC) (VHL + Brd3^BD2 [10]): 10.7 ^d; ΔΔG (ITC) (VHL + Brd4^BD1 [11]): –0.5 ^d kcal/mol; α (ITC) (VHL + Brd4^BD1 [11]): 2.3 ^d; ΔΔG (ITC) (VHL + Brd2^BD1 [12]): –0.6 ^d kcal/mol; α (ITC) (VHL + Brd2^BD1 [12]): 2.9 ^d; ΔΔG (ITC) (VHL + Brd3^BD1 [13]): –0.8 ^d kcal/mol; α (ITC) (VHL + Brd3^BD1 [13]): 3.5 ^d; ΔΔG (ITC) (VHL + Brd2^BD2 [14]): –0.5 ^d kcal/mol; α (ITC) (VHL + Brd2^BD2 [14]): 2.3 ^d |
| CC(=O)N1c2ccc(-c3ccc(C(=O)NCCOCCOCC(=O)N[C@H](C(=O)N4C[C@H](O)C[C@H]4C(=O)NCc4ccc(-c5scnc5C)cc4)C(C)(C)C)cc3)cc2[C@H](Nc2ccc(Cl)cc2)C[C@@H]1C [MZP61] | 0.2 | 465 | high | – | +1.0 kcal/mol | +0.6 kcal/mol | 0.4 | 1 | 30 | 1 | 248 | > 80 | 781 | +1.1 ^e kcal/mol | 0.1 ^e | 116 | 104 | ΔΔG (ITC) (VHL + Brd4^BD2 [5]; ref [10], listed as MZP 61): +1.1 kcal/mol |
| CC(=O)N1c2ccc(-c3ccc(C(=O)NCCOCCOCCOCCOCC(=O)N[C@H](C(=O)N4C[C@H](O)C[C@H]4C(=O)NCc4ccc(-c5scnc5C)cc4)C(C)(C)C)cc3)cc2[C@H](Nc2ccc(Cl)cc2)C[C@@H]1C [MZP55] | 0.4 | 185 | high | 69 | +0.7 kcal/mol | +0.5 kcal/mol | 0.5 | 0.47 | 27 | 1 | 134 | > 80 | 183 | +0.3 ^e kcal/mol | 0.6 ^e | 109 | 188 | ΔΔG (ITC) (VHL + Brd4^BD2 [5]; ref [10], listed as MZP 55): +0.3 kcal/mol; α (ITC) (VHL + Brd4^BD2 [5]; ref [10], listed as MZP 55): 0.6; koff (VHL [9]; multicycle, kinetic fit): 0.015 s⁻¹; kon (VHL [9]; multicycle, kinetic fit): 2.7 M^–1 s^–1 × 10^5; t1/2 (dissociative half-life, ln2/koff) (VHL [9]; multicycle, kinetic fit): 48 s |
